Patent US11884686B2, “Chelate compounds” (priority 2016, dated 2024)
Entries after “also recorded” stand apart in the source; their conditions may differ.

Experiments:
1H NMRD profiles = format: physicochemical; details: 0.01 to 80 MHz, pH 6.9
Procedure: Both the longitudinal and transverse relaxation times were measured in human serum (BioreclamationIVT, Cat #HMSRM-M) to reflect the efficiency of the Mn(II) based chelates in an environment close to physiological. The relaxivity assessment was carried out at a concentration ranging from 5 to 0 mM Mn(II), at 40° C. using a Minispec Mq benchtop NMR relaxometer (Bruker Instruments, Rheinstetten, Germany) operating at 60 MHz (1.4 T) with an inversion recovery pulse sequence. The longitudinal and transverse relaxivities of the complexes (e.g., r1 and r2 respectively) were calculated by plotting the reciprocal of their relaxation time versus the manganese concentration as determined via ICP-MS (Spectro Arcos FHS12, S/N 10003910 or S/N 12006120) for each Mn(II) based chelates. The dependence of T1 by B0 (i.e., magnetic field) applied was assessed via the acquisition of ^1H Nuclear Magnetic Relaxation Dispersion (NMRD) profiles. […] The temperature was monitored by a VTC91 temperature control unit and maintained by a gas flow. The temperature was determined by previous calibration with a Pt resistance temperature probe. High field relaxivities were measured on a Bruker AVANCE NMR spectrometer at 400 MHz. […]

[1] = Dissociation kinetics via Cu2+ transmetallation (UV-Vis absorbance); format: physicochemical; details: pH = 5.0, CCu2+ 0.004 M, 25° C., 0.2 mM chelate

SMILES | 1H NMRD profile (1H NMRD profiles) | kobs1 [1]
CN1CCN2Cc3cccc(n3)CN(CC1)C(CCC(=O)N(C)C[C@H](O)[C@@H](O)[C@H](O)[C@H](O)CO)C(=O)[O][Mn][O]C(=O)C2CCC(=O)N(C)C[C@H](O)[C@@H](O)[C@H](O)[C@H](O)CO (stereo partly drawn) [Mn Chelate 4] | only one dispersion in the profile around 1 MHz; also recorded: small r1 hump in the frequency region between 60 and 80 MHz | –
CN1CCN2CC(=O)[O][Mn][O]C(=O)CN(CC1)Cc1cccc(n1)C2 [Prior Art Mn Chelate, reference compound] | only one dispersion in the profile around 1 MHz | 0.032 min⁻¹
